Test results published in the supplement of paper PMC6045584.
± gives the standard deviation of the averaged measurements.

Columns and labels:
[1] = compound: COc1cccc2c1C(=O)c1c(O)c3c(c(O)c1C2=O)C[C@@](O)(C(=O)CO)C[C@@H]3O[C@H]1C[C@H](N)[C@H](O)[C@H](C)O1 [DOXORUBICIN]; assay: surviving fraction relative to DMSO-only wells; higher = less growth inhibition; conditions: exposure time: 5 days
Outline: (§1)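 Log-phase tumour cells were seeded at 250–500 per well in 384-well plates and, from 24 hours after seeding, exposed continuously for five days to inhibitors at 0.5, 1, 5, 10, 50, 100, 500 and 1000 nM. Surviving fraction is CellTiter-Glo luminescence normalised to the median of DMSO-only wells. Luminescence was measured after 10 minutes at room temperature, and only lines screened three times with replicate Pearson r >0.7 and median Z' >0.3 were kept.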

[2] = compound: O=c1[nH]cc(F)c(=O)[nH]1 [FLUOROURACIL]; assay: as above; conditions: exposure time: 5 days
Outline: as §1

Test System	surviving fraction ([1]; 0.5 nM)	surviving fraction ([1]; 1 nM)	surviving fraction ([1]; 5 nM)	surviving fraction ([1]; 10 nM)	surviving fraction ([1]; 50 nM)	surviving fraction ([1]; 100 nM)	surviving fraction ([1]; 500 nM)	surviving fraction ([1]; 1000 nM)	surviving fraction ([2]; 0.5 nM)	surviving fraction ([2]; 1 nM)	surviving fraction ([2]; 5 nM)	surviving fraction ([2]; 10 nM)	surviving fraction ([2]; 50 nM)	surviving fraction ([2]; 100 nM)	surviving fraction ([2]; 500 nM)	surviving fraction ([2]; 1000 nM)
HU09 BONE	0.924 ± 0.04	0.964 ± 0.11	0.861 ± 0.13	0.539 ± 0.1	0.0467 ± 0.0046	0.0277 ± 0.005	0.0227 ± 0.0023	0.0247 ± 0.0021	1.06 ± 0.13	0.966 ± 0.045	1.1 ± 0.022	1.1 ± 0.038	0.985 ± 0.092	0.941 ± 0.051	0.693 ± 0.091	0.604 ± 0.031
SYO1 SYNOVIAL	0.944 ± 0.065	0.906 ± 0.017	0.39 ± 0.066	0.176 ± 0.05	0.0563 ± 0.015	0.0384 ± 0.0093	0.0205 ± 0.00087	0.0309 ± 0.0013	1.02 ± 0.012	0.989 ± 0.01	0.962 ± 0.029	0.974 ± 0.024	0.894 ± 0.016	0.872 ± 0.034	0.763 ± 0.034	0.616 ± 0.025
S68 BREAST	0.792 ± 0.077	0.87 ± 0.13	0.693 ± 0.16	0.424 ± 0.016	0.205 ± 0.013	0.19 ± 0.015	0.037 ± 0.0046	0.0317 ± 0.0011	1.06 ± 0.15	1.14 ± 0.31	1.06 ± 0.29	1.23 ± 0.21	0.87 ± 0.13	0.749 ± 0.034	0.656 ± 0.16	0.465 ± 0.061
SKBR3 BREAST	0.804 ± 0.17	0.871 ± 0.1	0.852 ± 0.049	0.724 ± 0.16	0.375 ± 0.026	0.256 ± 0.0044	0.0547 ± 0.0061	0.0297 ± 0.0032	0.988 ± 0.088	0.894 ± 0.085	1.03 ± 0.074	0.986 ± 0.015	0.792 ± 0.059	0.741 ± 0.11	0.901 ± 0.11	0.787 ± 0.018
BT20 BREAST	1.1 ± 0.033	1.02 ± 0.11	0.823 ± 0.034	0.469 ± 0.07	0.187 ± 0.019	0.191 ± 0.025	0.042 ± 0.01	0.037 ± 0.0056	1.15 ± 0.11	1.18 ± 0.11	1.25 ± 0.058	1.16 ± 0.07	0.844 ± 0.079	0.836 ± 0.049	1.09 ± 0.049	0.929 ± 0.1
JIMT1 BREAST	0.943 ± 0.0048	0.963 ± 0.025	0.994 ± 0.04	0.901 ± 0.036	0.56 ± 0.055	0.48 ± 0.017	0.225 ± 0.012	0.087 ± 0.019	0.932 ± 0.0056	0.899 ± 0.021	0.979 ± 0.033	0.9068 ± 0.0066	0.94 ± 0.038	0.884 ± 0.062	0.948 ± 0.066	0.866 ± 0.076
HCC1954 BREAST	1.03 ± 0.19	0.955 ± 0.18	0.829 ± 0.015	0.772 ± 0.058	0.465 ± 0.067	0.169 ± 0.0085	0.0355 ± 0.00071	0.0328 ± 0.00035	1.13 ± 0.31	1.21 ± 0.17	1.13 ± 0.07	1.26 ± 0.21	0.572 ± 0.11	0.629 ± 0.063	0.681 ± 0.095	0.571 ± 0.018
VP229 BREAST	1.18 ± 0.067	1.11 ± 0.14	1 ± 0.11	0.931 ± 0.022	0.835 ± 0.11	0.567 ± 0.027	0.569 ± 0.13	0.233 ± 0.056	1.08 ± 0.036	0.988 ± 0.05	1.1 ± 0.13	0.92 ± 0.16	0.905 ± 0.068	0.827 ± 0.062	0.773 ± 0.095	0.654 ± 0.18
NOS1 BONE	1.16 ± 0.077	0.972 ± 0.051	0.982 ± 0.1	0.643 ± 0.074	0.752 ± 0.11	0.455 ± 0.036	0.106 ± 0.013	0.0487 ± 0.0068	1.01 ± 0.032	1.01 ± 0.14	1.09 ± 0.12	1.14 ± 0.11	0.91 ± 0.12	0.943 ± 0.073	0.799 ± 0.065	0.694 ± 0.081
SG31 HEADNECK	1.1 ± 0.095	1.03 ± 0.035	0.818 ± 0.035	0.717 ± 0.11	0.556 ± 0.03	0.495 ± 0.037	0.0787 ± 0.02	0.0363 ± 0.01	1.09 ± 0.14	1.25 ± 0.32	1.05 ± 0.085	0.973 ± 0.11	0.893 ± 0.048	0.981 ± 0.16	0.903 ± 0.059	0.876 ± 0.054
OS25HAL BONE	0.982 ± 0.016	0.974 ± 0.013	0.97033 ± 0.00058	0.965 ± 0.0076	0.258 ± 0.033	0.151 ± 0.01	0.0337 ± 0.0047	0.038 ± 0.003	1 ± 0.062	1.01 ± 0.056	0.985 ± 0.019	0.977 ± 0.014	1.05 ± 0.082	1.15 ± 0.014	0.939 ± 0.032	0.808 ± 0.032
22RV1 PROSTATE	1.02 ± 0.018	0.917 ± 0.047	0.618 ± 0.055	0.416 ± 0.047	0.222 ± 0.03	0.119 ± 0.026	0.024 ± 0.001	0.0357 ± 0.0025	1.07 ± 0.11	0.936 ± 0.068	1.1 ± 0.11	0.946 ± 0.13	1.09 ± 0.053	1.104 ± 0.011	0.957 ± 0.15	0.705 ± 0.18
KPD BONE	1.06 ± 0.057	0.963 ± 0.056	0.897 ± 0.075	0.909 ± 0.05	0.242 ± 0.048	0.116 ± 0.011	0.0297 ± 0.0031	0.0317 ± 0.0015	0.982 ± 0.018	0.922 ± 0.052	1.02 ± 0.07	1.03 ± 0.044	1.05 ± 0.048	1.02 ± 0.051	0.9797 ± 0.0032	0.926 ± 0.022
HUO3N1 BONE	0.977 ± 0.053	1.02 ± 0.021	0.953 ± 0.052	0.857 ± 0.049	0.47 ± 0.016	0.311 ± 0.025	0.08133 ± 0.00058	0.0547 ± 0.00058	1 ± 0.047	1.06 ± 0.02	1.09 ± 0.031	1.07 ± 0.05	1.03 ± 0.059	0.99 ± 0.046	0.973 ± 0.036	0.91 ± 0.029
OSHN BONE	1.04 ± 0.039	1.05 ± 0.059	1.05 ± 0.031	1.03 ± 0.028	0.299 ± 0.068	0.286 ± 0.062	0.0707 ± 0.0021	0.0503 ± 0.00058	1.01 ± 0.014	0.972 ± 0.029	1.061 ± 0.007	1.001 ± 0.0042	1.007 ± 0.0011	0.9777 ± 0.0071	0.989 ± 0.014	0.875 ± 0.029
C33A CERVIX	0.842 ± 0.066	0.988 ± 0.068	0.779 ± 0.055	0.604 ± 0.045	0.122 ± 0.013	0.085 ± 0.0096	0.0347 ± 0.0086	0.04 ± 0.0079	1 ± 0.086	1.12 ± 0.043	1.08 ± 0.11	1.16 ± 0.05	1.1 ± 0.055	1.1 ± 0.06	1.02 ± 0.085	1.28 ± 0.055
SUM149 BREAST	1.01 ± 0.013	0.961 ± 0.13	0.401 ± 0.056	0.233 ± 0.025	0.186 ± 0.014	0.145 ± 0.0087	0.0277 ± 0.0031	0.0253 ± 0.00058	0.934 ± 0.029	0.969 ± 0.064	0.908 ± 0.028	0.909 ± 0.038	0.872 ± 0.071	0.902 ± 0.063	0.736 ± 0.069	0.597 ± 0.057
ASKA SYNOVIAL	0.792 ± 0.014	0.5807 ± 0.0031	0.28 ± 0.0042	0.292 ± 0.007	0.204 ± 0.016	0.166 ± 0.0025	0.16 ± 0.0079	0.224 ± 0.0035	1.1 ± 0.072	1.06 ± 0.081	1.17 ± 0.021	1.04 ± 0.024	1.01 ± 0.05	0.937 ± 0.066	0.919 ± 0.068	0.775 ± 0.042
SIHA CERVIX	0.996 ± 0.084	0.998 ± 0.08	1.04 ± 0.053	0.9867 ± 0.0011	0.505 ± 0.04	0.481 ± 0.0086	0.0967 ± 0.061	0.0287 ± 0.00058	1.01 ± 0.043	0.989 ± 0.052	1.06 ± 0.011	1.08 ± 0.066	0.999 ± 0.051	0.957 ± 0.073	0.915 ± 0.13	1.02 ± 0.097
SUM159 BREAST	1.1 ± 0.14	1.08 ± 0.11	1.05 ± 0.11	0.964 ± 0.043	0.176 ± 0.045	0.173 ± 0.027	0.0397 ± 0.0021	0.039 ± 0.002	1.1 ± 0.024	1.07 ± 0.023	1.08 ± 0.027	1.06 ± 0.026	1.073 ± 0.0051	1.01 ± 0.012	1.03 ± 0.014	0.915 ± 0.01
HOS BONE	1.009 ± 0.0046	1 ± 0.028	0.686 ± 0.0056	0.352 ± 0.1	0.087 ± 0.0053	0.043 ± 0.007	0.024	0.0283 ± 0.0015	1.05 ± 0.025	1.01 ± 0.017	1.02 ± 0.015	0.99 ± 0.015	1.03 ± 0.039	1.01 ± 0.034	0.8203 ± 0.0081	0.639 ± 0.032
LM7 BONE	0.95 ± 0.033	1.05 ± 0.073	0.902 ± 0.051	0.818 ± 0.014	0.245 ± 0.016	0.229 ± 0.018	0.0483 ± 0.0038	0.0483 ± 0.0065	0.976 ± 0.039	0.992 ± 0.027	1.05 ± 0.043	1.01 ± 0.047	0.851 ± 0.057	0.856 ± 0.077	0.73 ± 0.079	0.628 ± 0.083
